Measurements as given in PMC4741607 (Oncotarget, 2015).
Where two headings read alike, the source gives them in different places.

Tests used:
[1] = tested on: H3255 (EGFR L858R); test: Proliferation (CellTiter-Glo), H3255; assay type: cell-based, human; details: Homo sapiens
[2] = tested on: H3255 EGFR L858R; test: Colony formation assay, H3255; assay type: cell-based, human
[3] = tested on: H460 (EGFR wt); test: Proliferation (CellTiter-Glo), H460; assay type: cell-based, human; details: Homo sapiens
[4] = tested on: PC-9 EGFR del 19; test: Colony formation assay, PC-9; assay type: cell-based, human
[5] = tested on: HCC827 EGFR Del 19; test: Colony formation assay, HCC827; assay type: cell-based, human
[6] = tested on: H358 (EGFR wt); test: Proliferation (CellTiter-Glo), H358; assay type: cell-based, human; details: Homo sapiens
[7] = tested on: H1975 (EGFR L858R/T790M); test: Proliferation (CellTiter-Glo), H1975; assay type: cell-based, human; details: Homo sapiens
[8] = tested on: HCC827 (EGFR Del19); test: Proliferation (CellTiter-Glo), HCC827; assay type: cell-based, human; details: Homo sapiens
[9] = tested on: A549 (EGFR wt); test: Proliferation (CellTiter-Glo), A549; assay type: cell-based, human; details: Homo sapiens
[10] = tested on: H23 (EGFR wt); test: Proliferation (CellTiter-Glo), H23; assay type: cell-based, human; details: Homo sapiens
[11] = tested on: A431 (EGFR wt); test: Proliferation (CellTiter-Glo), A431; assay type: cell-based, human; details: Homo sapiens
[12] = tested on: H2122 (EGFR wt); test: Proliferation (CellTiter-Glo), H2122; assay type: cell-based, human; details: Homo sapiens
[13] = tested on: H1975 EGFR (L858R/T790M); test: Colony formation assay, H1975; assay type: cell-based, human
[14] = tested on: PC-9 (EGFR Del19); test: Proliferation (CellTiter-Glo), PC-9; assay type: cell-based, human; details: Homo sapiens
[15] = tested on: PC-9 cells; test: Cell cycle analysis (FACS), PC-9; assay type: cell-based, human; details: PC-9, 24h, 0.3 μM
[16] = tested on: HCC827 cells; test: Cell cycle analysis (FACS), HCC827; assay type: cell-based, human; details: HCC827, 24 h, 0.3 μM
[17] = tested on: H460 cells; test: Cell cycle analysis (FACS), H460; assay type: cell-based, human; details: H460, 48h, 0.3 μM
[18] = tested on: H3255 cells; test: Cell cycle analysis (FACS), H3255; assay type: cell-based, human; details: H3255, 24h, 0.3 μM
[19] = tested on: H1975 xenograft; test: H1975 xenograft mouse model; assay type: in vivo, Nude (Nu/Nu) mice; details: 25 mg/kg/day QD oral gavage
Protocol: (§1) Tumor diameter was measured 3 times weekly. Tumor volumes (V) were calculated by the equation (V = length × width × width/2). ALL experiments and procedures followed the guidelines of the Institutional Animal Care and Use Committees of National Institue of Biological Sciences, Beijing.

[20] = tested on: PC-9 xenograft; test: PC-9 xenograft mouse model; assay type: in vivo, Nude (Nu/Nu) mice; details: PC-9 xenograft, 25 mg/kg/day QD oral gavage
Protocol: as §1

[21] = tested on: H1975 cells; test: Cell cycle analysis (FACS), H1975; assay type: cell-based, human; details: 0.3 μM
[22] = NCI-H3255, H3255, EGFR L858R, 72 hours, read-out: GI50
[23] = Homo sapiens, NCI-H3255, 240 h, H3255, 10 days, read-out: EC50 colony formation
[24] = NCI-H460, H460, EGFR wt, 72 hours, read-out: GI50
[25] = Homo sapiens, 240 h, PC-9, 10 days, read-out: EC50 colony formation
[26] = PC-9, 10 days, read-out: EC50 colony formation
[27] = HCC827, 10 days, read-out: EC50 colony formation
[28] = Homo sapiens, HCC827, 240 h, HCC827, 10 days, read-out: EC50 colony formation
[29] = NCI-H358, H358, EGFR wt, 72 hours, read-out: GI50
[30] = NCI-H1975, H1975, EGFR L858R/T790M, 72 hours, read-out: GI50
[31] = HCC827, EGFR Del19, 72 hours, read-out: GI50
[32] = A549, EGFR wt, 72 hours, read-out: GI50
[33] = H23, EGFR wt, 72 hours, read-out: GI50
[34] = A-431, A431, EGFR wt, 72 hours, read-out: GI50
[35] = NCI-H2122, H2122, EGFR wt, 72 hours, read-out: GI50
[36] = Homo sapiens, NCI-H1975, 240 h, H1975, 10 days, read-out: EC50 colony formation
[37] = PC-9, EGFR Del19, 72 hours, read-out: GI50

GI50 [1, 22]	EC50 [2, 23]	GI50 [3, 24]	EC50 [4, 25]	EC50 [4, 26]	EC50 [5, 27]	EC50 [5, 28]	GI50 [6, 29]	GI50 [7, 30]	GI50 [8, 31]	GI50 [9, 32]	SMILES	%G0-G1 [15]	%G2-M [15]	%G0-G1 [16]	%G2-M [16]	%G0-G1 [17]	%G2-M [17]	%G0-G1 [18]	%G2-M [18]	GI50 [10, 33]	also measured
											C=CC(=O)Nc1cc(Nc2nccc(-c3cn(C)c4ccccc34)n2)c(OC)cc1N(C)CCN(C)C [AZD-9291, AZD9291]										GI50 ([1]; NCI-H3255, 72 h): 31 nM; EC50 ([2]; Homo sapiens, NCI-H3255, 240 h, read-out: EC50 colony formation, H3255, 10 days): 5.59 nM; EC50 ([2]; read-out: EC50 colony formation, H3255, 10 days): 5.5 nM; GI50 ([3]; NCI-H460, 72 h): 4000 nM; EC50 ([4]; Homo sapiens, 240 h, read-out: EC50 colony formation, PC-9, 10 days): 2.51 nM; EC50 ([5]; Homo sapiens, HCC827, 240 h, read-out: EC50 colony formation, HCC827, 10 days): 1.23 nM; EC50 ([5]; read-out: EC50 colony formation, HCC827, 10 days): 1.2 nM; GI50 ([6]; NCI-H358, 72 h): 9400 nM; GI50 ([7]; NCI-H1975, 72 h): […]; GI50 ([8]; HCC827, 72 h): 4 nM; GI50 ([9]; A549, 72 h): 5000 nM; GI50 ([10]; 72 h): 4200 nM; GI50 ([11]; A-431, 72 h): […]; GI50 ([12]; NCI-H2122, 72 h): 7600 nM; EC50 ([13]; Homo sapiens, NCI-H1975, 240 h, read-out: EC50 colony formation, H1975, 10 days): 118 nM; EC50 ([13]; read-out: EC50 colony formation, H1975, 10 days): 118 nM; GI50 ([14]; 72 h): 3 nM
250 nM	211 nM	2500 nM	56.2 nM	56 nM	11 nM	11.5 nM	4800 nM	440 nM	97 nM	830 nM	C=CC(=O)Nc1cccc(Nc2nc(Nc3ccc(N4CCN(C(C)=O)CC4)cc3OC)ncc2C(F)(F)F)c1 [CO-1686]	85.49%	8.97%	83.96%	3.62%	51.62%	8.78%	81.24%	9.84%	1400 nM	GI50 [11, 34]: 1200 nM; GI50 [12, 35]: 1400 nM; EC50 [13, 36]: 606 nM; GI50 [14, 37]: 130 nM
120 nM	89.1 nM	4800 nM	11.1 nM	11 nM	10 nM	9.65 nM	> 10000 nM	300 to 1000 nM	19 nM	> 10000 nM	C=CC(=O)Nc1cccc(Oc2nc(Nc3ccc(N4CCN(C)CC4)cc3OC)ncc2Cl)c1 [WZ-4002, WZ4002]	87.95%	6.24%	79.74%	5.62%	71.39%	5.15%	81.96%	9.90%	> 10000 nM	EC50 ([2]; H3255, 10 days, read-out: EC50 colony formation): 89 nM; anti-tumor activity (tumor growth) [19]: almost completely suppressed the tumor growth; anti-tumor activity (tumor growth) [20]: almost completely suppressed the tumor growth; GI50 [11, 34]: 1000 nM; GI50 [12, 35]: 4500 nM; EC50 ([13]; H1975, 10 days, read-out: EC50 colony formation): 12 nM; EC50 [13, 36]: 12.2 nM; GI50 [14, 37]: 44 nM; %G0-G1 ([21]; H1975, 12h): 70.4%; %G2-M ([21]; H1975, 12h): 10.17%; %G0-G1 ([21]; H1975, 24h): 80.35%; %G2-M ([21]; H1975, 24h): 7.63%; %G0-G1 ([21]; H1975, 48h): 94.64%; %G2-M ([21]; H1975, 48h): 0.95%
